ChEMBL document CHEMBL1201862, “PubChem BioAssay data set” (2004)
The source made the active and inactive calls.

Columns and labels:
[1] = target: Nucleotide-binding oligomerization domain-containing protein 2 (Homo sapiens, UniProt Q9HC29); assay: inhibition of NOD2 signaling – set 2, SAR follow-up (AID 2475); type: functional
[2] = loss of viability in HepG2 cells – cell-based, CellTiter-Glo, cherry-picked, cytotoxicity control for Shn3 inhibitor project, dose response (AID 624134); type: functional
[3] = system: INS1; assay: INS-1E survival protection against cytokine death – cell-based, luminescence, retest, dose response (AID 449756); type: functional; conditions: Rattus norvegicus;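 further: cell death triggered by IL-1 beta plus TNF-alpha plus IFN-gamma mixture; protective hits raise ATP signal compared with cytokine alone wells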
[4] = target: Beta Lactamase (Pseudomonas aeruginosa, UniProt Q932Y6); assay: BLA reporter interference, concentration series – BLA reporter cells, FRET fluorescence, artefact control for TLR9-MyD88 binding inhibitor project, dose response (AID 588341); type: cell-based;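 further: cell based assay in CHO-K1 cells stably expressing beta-lactamase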
[5] = target: T1, Interleukin-8 (Homo sapiens, UniProt P10145); assay: SAR analysis of GM-Tri-DAP induced IL-8 secretion in MCF-7/NOD1 cells - Set 2. [Related pubchem assays (depositor defined):AID1575, AID1578, AID2333]; type: functional, cell-based
T1 sequence (P10145 whole entry): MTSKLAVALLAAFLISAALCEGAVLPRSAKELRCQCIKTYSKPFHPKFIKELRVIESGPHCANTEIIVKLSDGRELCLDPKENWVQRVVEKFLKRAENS

[6] = system: HEK293; assay: SAR analysis of compounds that are cytotoxic to HEK293 - Set 2. [Related pubchem assays (depositor defined):AID1575, AID1578, AID1849, AID2001, AID2333, AID2334, AID2335, AID2337, AID2800]; type: functional, cell-based; conditions: Homo sapiens
[7] = target: Glucose-6-phosphate 1-dehydrogenase (Homo sapiens, UniProt P11413); assay: inhibition of Homo sapiens G6PD, dose series – biochemical, fluorescence, selectivity assay for P. falciparum G6PD inhibitor project, dose response (AID 504792); type: functional
[8] = target: T2, Nucleotide-binding oligomerization domain-containing protein 1 (Homo sapiens, UniProt Q9Y239); assay: SAR analysis of compounds that inhibit NOD1 - Set 2. [Related pubchem assays (depositor defined):AID1566, AID1575, AID1578, AID1849, AID1852, AID2333, AID2335, AID2798]; type: functional
T2 sequence (Q9Y239 whole entry): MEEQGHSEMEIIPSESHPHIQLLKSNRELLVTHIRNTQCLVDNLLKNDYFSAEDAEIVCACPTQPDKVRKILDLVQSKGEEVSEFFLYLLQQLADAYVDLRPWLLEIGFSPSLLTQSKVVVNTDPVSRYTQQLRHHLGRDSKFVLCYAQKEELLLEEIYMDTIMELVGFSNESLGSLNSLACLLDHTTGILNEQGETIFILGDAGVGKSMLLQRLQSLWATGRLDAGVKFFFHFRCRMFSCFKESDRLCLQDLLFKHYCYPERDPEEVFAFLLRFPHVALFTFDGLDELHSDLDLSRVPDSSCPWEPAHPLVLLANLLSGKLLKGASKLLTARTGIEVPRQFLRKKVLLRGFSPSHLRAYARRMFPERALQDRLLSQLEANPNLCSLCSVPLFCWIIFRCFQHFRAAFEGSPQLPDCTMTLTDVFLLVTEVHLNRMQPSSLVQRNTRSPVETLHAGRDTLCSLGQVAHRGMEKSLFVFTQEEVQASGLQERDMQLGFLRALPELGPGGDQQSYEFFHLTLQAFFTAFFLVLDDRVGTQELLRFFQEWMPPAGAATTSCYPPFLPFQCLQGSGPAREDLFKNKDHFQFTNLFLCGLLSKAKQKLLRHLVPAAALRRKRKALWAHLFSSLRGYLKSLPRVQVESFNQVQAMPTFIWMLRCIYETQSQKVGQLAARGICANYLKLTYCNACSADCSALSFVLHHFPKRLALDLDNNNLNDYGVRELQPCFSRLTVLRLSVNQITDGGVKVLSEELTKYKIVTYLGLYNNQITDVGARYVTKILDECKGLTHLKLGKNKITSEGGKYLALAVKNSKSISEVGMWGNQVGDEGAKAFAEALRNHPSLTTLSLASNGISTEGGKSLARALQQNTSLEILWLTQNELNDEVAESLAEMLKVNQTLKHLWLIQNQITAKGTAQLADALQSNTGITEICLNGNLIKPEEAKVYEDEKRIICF

[9] = THP-1 cell cytotoxicity, dose response, cytotoxicity control for non-replicating M. tuberculosis project (AID 489025); type: functional
[10] = reduction of Shn3 3'UTR-driven luciferase in osteoblasts – cell-based, Clone20 osteoblasts, firefly luciferase, cherry-picked, dose response (AID 624132); type: functional;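 further: firefly luciferase luminescence from reporter carrying the Shn3 3'UTR in osteoblasts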
[11] = cells; type: functional
[12] = target: T2, Nucleotide-binding oligomerization domain-containing protein 1; assay: SAR analysis of NF-kappaB dependent luciferase using DAP as an inducer - Set 2. [Related pubchem assays (depositor defined):AID1566, AID1575, AID1578, AID1579, AID1849, AID1852, AID2264]; type: functional
[13] = target: T1, Interleukin-8; assay: SAR analysis of Tumor necrosis factor alpha (TNF-alpha) induced IL-8 secretion in MCF-7/NOD1 cells - Set 2. [Related pubchem assays (depositor defined):AID1575, AID2250, AID2260]; type: functional, cell-based
[14] = target: Transitional endoplasmic reticulum ATPase (Homo sapiens, UniProt P55072, C522A); assay: C522A mutant p97 ATPase inhibitors, dose response, counter-screen for p97 inhibitor project, biochemical, luminescence (AID 1544)
[15] = target: Transitional endoplasmic reticulum ATPase (Homo sapiens, UniProt P55072); assay: p97 ATPase inhibitors, dose response, biochemical (AID 1534)
[16] = target: Ras and Rab interactor 1/Tyrosine-protein kinase ABL1 (Homo sapiens, UniProt P00519+Q13671); assay: biochemical; type: functional;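 further: biochemical TR-FRET dose-response test measuring inhibition of binding between Rin1 and Abl proteins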
[17] = target: T3, Caspase-6 (Homo sapiens, UniProt P55212); assay: inhibition of CASP6 peptide cleavage – biochemical, VEID-R110 fluorescence, cherry-pick, dose response (AID 720632)
T3 sequence (P55212 whole entry): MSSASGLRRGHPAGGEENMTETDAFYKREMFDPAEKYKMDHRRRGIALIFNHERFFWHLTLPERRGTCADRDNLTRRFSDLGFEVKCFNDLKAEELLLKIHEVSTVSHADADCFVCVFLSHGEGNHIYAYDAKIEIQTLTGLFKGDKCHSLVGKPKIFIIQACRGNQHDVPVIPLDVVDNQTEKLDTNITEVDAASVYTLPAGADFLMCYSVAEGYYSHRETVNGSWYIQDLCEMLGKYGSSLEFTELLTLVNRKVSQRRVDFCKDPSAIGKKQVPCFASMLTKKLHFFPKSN

Transitional endoplasmic reticulum ATPase (Homo sapiens, UniProt P55072, C522A), sequence (P55072 2-806 C522A limits assumed): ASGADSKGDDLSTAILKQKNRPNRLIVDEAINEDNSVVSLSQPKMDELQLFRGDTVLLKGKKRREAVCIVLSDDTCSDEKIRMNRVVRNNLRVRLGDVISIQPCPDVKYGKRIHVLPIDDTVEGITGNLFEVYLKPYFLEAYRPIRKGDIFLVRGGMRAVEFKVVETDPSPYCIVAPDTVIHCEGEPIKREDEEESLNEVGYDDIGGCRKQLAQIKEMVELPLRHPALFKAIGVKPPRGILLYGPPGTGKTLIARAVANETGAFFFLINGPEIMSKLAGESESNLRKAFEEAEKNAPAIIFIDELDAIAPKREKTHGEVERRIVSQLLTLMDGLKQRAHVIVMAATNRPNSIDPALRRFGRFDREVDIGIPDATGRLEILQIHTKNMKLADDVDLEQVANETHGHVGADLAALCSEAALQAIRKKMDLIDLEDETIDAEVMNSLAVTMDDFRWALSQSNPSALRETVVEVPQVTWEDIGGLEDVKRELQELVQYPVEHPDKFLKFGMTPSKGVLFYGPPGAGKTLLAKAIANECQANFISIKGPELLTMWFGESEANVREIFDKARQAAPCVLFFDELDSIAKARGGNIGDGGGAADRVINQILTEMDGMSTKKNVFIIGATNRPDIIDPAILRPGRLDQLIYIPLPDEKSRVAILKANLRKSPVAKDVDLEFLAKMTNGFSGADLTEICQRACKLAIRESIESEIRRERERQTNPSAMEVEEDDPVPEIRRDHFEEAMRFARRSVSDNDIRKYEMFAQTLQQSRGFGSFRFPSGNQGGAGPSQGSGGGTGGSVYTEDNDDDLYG
Nucleotide-binding oligomerization domain-containing protein 2, sequence (Q9HC29 whole entry, the tested form may be a part): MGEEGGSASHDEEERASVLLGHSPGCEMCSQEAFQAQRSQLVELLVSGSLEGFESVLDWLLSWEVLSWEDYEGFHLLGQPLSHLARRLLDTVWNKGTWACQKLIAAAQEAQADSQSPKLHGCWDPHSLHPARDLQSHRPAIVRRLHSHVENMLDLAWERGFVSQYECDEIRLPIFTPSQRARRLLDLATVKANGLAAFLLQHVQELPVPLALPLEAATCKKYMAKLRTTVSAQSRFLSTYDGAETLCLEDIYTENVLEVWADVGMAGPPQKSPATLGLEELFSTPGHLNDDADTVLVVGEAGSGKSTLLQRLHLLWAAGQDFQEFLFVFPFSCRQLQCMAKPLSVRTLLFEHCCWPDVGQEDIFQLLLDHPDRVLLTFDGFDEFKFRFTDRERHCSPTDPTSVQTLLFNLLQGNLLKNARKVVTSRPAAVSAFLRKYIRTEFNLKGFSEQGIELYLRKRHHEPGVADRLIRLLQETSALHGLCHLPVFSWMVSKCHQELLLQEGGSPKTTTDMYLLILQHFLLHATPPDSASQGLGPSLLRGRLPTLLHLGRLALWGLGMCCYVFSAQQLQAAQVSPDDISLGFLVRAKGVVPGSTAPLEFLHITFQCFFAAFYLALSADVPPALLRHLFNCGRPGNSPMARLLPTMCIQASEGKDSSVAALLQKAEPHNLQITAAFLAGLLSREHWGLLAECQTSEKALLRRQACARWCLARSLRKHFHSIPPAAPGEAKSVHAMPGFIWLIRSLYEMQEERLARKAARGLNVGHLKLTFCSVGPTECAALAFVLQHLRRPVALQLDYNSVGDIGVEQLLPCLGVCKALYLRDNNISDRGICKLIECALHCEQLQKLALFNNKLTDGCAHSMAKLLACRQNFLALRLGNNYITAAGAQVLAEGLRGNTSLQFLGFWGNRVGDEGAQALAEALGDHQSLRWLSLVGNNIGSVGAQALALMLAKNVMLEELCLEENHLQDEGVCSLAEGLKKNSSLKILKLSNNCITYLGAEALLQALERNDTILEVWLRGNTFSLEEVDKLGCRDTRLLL
Beta Lactamase, sequence (Q932Y6 whole entry): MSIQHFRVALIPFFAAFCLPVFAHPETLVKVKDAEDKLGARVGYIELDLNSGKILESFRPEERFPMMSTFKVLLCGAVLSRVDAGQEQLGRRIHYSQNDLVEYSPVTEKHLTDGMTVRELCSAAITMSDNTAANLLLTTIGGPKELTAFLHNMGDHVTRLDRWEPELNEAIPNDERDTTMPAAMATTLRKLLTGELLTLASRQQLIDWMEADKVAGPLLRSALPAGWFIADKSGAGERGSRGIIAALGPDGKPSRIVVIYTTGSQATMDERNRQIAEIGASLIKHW
Transitional endoplasmic reticulum ATPase (Homo sapiens, UniProt P55072), sequence (P55072 whole entry): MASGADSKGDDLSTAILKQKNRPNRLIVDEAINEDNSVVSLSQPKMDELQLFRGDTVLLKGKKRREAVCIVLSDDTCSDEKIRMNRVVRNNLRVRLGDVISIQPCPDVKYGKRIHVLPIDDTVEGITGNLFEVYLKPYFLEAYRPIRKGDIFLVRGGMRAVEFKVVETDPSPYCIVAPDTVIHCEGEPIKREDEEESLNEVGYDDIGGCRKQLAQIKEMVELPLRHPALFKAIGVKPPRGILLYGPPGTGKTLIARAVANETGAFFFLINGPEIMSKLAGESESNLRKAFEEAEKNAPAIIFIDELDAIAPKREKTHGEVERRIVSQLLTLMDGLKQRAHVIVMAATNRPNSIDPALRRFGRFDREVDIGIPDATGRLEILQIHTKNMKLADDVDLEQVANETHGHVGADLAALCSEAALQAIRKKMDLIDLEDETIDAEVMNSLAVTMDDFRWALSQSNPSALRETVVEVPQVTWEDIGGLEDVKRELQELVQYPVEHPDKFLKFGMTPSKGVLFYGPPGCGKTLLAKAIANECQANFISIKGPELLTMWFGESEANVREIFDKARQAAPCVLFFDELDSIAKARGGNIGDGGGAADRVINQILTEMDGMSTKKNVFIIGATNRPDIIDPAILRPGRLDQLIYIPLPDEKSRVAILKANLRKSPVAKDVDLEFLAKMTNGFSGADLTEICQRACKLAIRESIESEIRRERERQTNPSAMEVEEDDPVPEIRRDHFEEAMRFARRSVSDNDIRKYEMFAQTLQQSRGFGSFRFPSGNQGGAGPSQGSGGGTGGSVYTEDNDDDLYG
Glucose-6-phosphate 1-dehydrogenase, sequence (P11413 whole entry, the tested form may be a part): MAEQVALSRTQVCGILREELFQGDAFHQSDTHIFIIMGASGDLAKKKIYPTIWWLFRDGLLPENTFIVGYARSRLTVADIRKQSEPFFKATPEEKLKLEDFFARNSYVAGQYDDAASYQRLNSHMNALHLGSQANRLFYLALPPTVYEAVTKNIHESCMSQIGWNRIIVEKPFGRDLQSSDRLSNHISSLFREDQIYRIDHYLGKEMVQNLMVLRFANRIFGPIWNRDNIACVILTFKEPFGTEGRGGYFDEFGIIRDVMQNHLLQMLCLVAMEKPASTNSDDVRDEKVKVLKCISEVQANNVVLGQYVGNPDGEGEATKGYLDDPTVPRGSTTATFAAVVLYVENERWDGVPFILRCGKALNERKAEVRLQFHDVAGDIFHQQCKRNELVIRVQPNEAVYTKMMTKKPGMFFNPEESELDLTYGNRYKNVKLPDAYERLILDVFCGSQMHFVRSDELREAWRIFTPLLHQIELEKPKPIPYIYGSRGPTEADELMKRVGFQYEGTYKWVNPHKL

In the case of Cn1c(=O)[nH]c(=O)c2c1nc([N+](=O)[O-])n2Cc1ccccc1, the IC50 [1] was 0.748 µM (active), the AC50 [2] was 18.3 µM (active) and the AC50 [3] was 7.36 µM (active). For the same compound, the IC50 [4] was > 49.8 µM (inactive), the IC50 [5] was 2.16 µM (active) and the IC50 [6] was 13.7 µM (active). For the same compound, the IC50 [7] was 47.9 µM (inactive), the IC50 [8] was 0.785 µM (active) and the CC50 [9] was 3.23 µM (active). The AC50 [10] was 1.9 µM (active), the IC50 [11] was 4.75 µM (active) and the IC50 [12] was > 25 µM (inactive). The IC50 [13] was 3.5 µM (active).
For O=C(NC1(O)C(=O)c2ccccc2C1=O)c1c(Cl)cccc1Cl, the IC50 [14] was > 50 µM (not active), the IC50 [15] was > 50 µM (not active) and the IC50 [16] was 21 µM (inactive).
For CCN(c1ccccc1)c1cc2ccccc2c(=O)[nH]1, the AC50 [17] was 5.45 µM (active).
